According to paper PMC5350174, “Orai and TRPC channel characterization in FcεRI‐mediated calcium signaling and mediator secretion in human mast cells” (Physiological Reports, 2017):
One block for each molecule: values may come before it.

Columns and labels:
Assay type in all cases: cell-based
[1] = target: T1, Orai1 (Homo sapiens, UniProt Q96D31); test: ICRAC current inhibition in HEK cells over-expressing Orai1/STIM1 (data not shown); details: HEK293; read-out: % inhibition at 10 μmol/L
T1 construct: Orai1/STIM1 over-expressed in HEK cells; with STIM1

[2] = target: T2, TRPC6 (Homo sapiens, UniProt Q9Y210); test: Fura-2 calcium imaging in HEK-TRPC6 cells; also whole-cell patch clamp of hTRPC6 in HEK293; parameters: human TRPC6 expressed in HEK cells
T2 sequence (Q9Y210 1-931): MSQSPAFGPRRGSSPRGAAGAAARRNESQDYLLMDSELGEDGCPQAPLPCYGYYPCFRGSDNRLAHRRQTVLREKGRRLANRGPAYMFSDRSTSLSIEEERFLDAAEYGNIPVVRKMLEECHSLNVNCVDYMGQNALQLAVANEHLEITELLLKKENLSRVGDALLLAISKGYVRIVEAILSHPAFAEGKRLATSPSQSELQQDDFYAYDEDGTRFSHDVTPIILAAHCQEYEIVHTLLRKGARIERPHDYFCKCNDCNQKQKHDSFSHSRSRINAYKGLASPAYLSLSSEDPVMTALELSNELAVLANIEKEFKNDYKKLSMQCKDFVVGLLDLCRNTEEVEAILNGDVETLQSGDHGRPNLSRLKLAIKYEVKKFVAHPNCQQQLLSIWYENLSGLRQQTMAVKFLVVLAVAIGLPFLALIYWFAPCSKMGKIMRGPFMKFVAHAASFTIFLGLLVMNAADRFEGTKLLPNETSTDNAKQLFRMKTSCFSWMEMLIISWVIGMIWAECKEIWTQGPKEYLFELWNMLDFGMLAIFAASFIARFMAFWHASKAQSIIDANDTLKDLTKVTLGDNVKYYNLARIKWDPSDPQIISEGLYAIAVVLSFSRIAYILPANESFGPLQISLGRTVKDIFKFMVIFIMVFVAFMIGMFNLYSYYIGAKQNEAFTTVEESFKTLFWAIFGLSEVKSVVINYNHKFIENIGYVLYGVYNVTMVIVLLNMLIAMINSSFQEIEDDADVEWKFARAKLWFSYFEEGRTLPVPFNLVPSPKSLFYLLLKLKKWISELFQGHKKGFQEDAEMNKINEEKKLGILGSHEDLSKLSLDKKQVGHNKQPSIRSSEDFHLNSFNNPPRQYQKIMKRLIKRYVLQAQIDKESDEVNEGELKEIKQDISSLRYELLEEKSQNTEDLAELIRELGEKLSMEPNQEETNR

[3] = target: T2, TRPC6; test: Fura-2 calcium imaging in HEK-TRPC6 cells, inhibition of GSK-2934A-induced signal; parameters: human TRPC6 stably expressed in HEK cells

T1 sequence (Q96D31 whole entry): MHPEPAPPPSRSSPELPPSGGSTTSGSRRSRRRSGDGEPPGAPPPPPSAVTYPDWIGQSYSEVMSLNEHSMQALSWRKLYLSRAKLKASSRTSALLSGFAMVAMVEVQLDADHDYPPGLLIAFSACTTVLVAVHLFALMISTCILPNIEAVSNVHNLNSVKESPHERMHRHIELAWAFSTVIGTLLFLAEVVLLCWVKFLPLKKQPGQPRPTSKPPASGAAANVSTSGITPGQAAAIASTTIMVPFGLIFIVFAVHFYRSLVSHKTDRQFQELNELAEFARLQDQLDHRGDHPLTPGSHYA
T1 sequence (Q13586 23-685 partner): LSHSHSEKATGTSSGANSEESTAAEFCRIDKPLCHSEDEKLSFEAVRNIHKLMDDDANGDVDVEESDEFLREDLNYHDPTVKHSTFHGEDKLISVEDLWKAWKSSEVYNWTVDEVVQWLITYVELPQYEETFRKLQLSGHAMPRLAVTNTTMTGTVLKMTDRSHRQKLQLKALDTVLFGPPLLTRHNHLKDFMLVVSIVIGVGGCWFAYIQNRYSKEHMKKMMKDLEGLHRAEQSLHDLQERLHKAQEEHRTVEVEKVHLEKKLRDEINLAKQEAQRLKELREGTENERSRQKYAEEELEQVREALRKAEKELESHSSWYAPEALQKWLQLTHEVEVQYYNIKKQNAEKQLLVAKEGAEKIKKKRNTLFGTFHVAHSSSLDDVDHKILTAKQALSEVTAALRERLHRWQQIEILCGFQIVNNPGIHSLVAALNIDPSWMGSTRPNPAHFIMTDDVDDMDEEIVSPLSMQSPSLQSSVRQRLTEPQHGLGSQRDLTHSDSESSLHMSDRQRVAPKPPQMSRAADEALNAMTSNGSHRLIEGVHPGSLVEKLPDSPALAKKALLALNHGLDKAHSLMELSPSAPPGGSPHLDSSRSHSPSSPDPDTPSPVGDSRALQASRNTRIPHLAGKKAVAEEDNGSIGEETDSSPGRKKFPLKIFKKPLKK

inhibition at 10 µM [1]: 94 ± 3%
SMILES: COc1ccc(OC)c(-c2ccc(NC(=O)c3ccncc3F)cc2)c1 [Synta66]

EC50 [2]: 6.6 pEC50
SMILES: O=C(c1cc2c(s1)CCCCC2)N1CCC(n2c(=O)[nH]c3ccccc32)CC1 [GSK-2934A, GSK1702934A]

IC50 [3]: 7.8 pIC50
SMILES: Cc1sc(Nc2ccc(Cl)cc2F)nc1C(=O)N1CCC[C@H](C)[C@@H]1C [GSK-3503A, GSK2833503A]
